Our source for the inhibition values is patent US11274101B2, “Heterocyclic compound” (Takeda Pharmaceutical Company Limited, priority 2017, dated 2022).

For orientation: inhibition means the relative decrease from the control value, in per cent.

The assay deals with T1, His-hMAGL (recombinant polyhistidine tagged human MAGL protein) (Homo sapiens, UniProt Q99685).
T1 construct: made in house; host or cells: E. coli BL21(DE3)
T1 sequence (Q99685 1-303): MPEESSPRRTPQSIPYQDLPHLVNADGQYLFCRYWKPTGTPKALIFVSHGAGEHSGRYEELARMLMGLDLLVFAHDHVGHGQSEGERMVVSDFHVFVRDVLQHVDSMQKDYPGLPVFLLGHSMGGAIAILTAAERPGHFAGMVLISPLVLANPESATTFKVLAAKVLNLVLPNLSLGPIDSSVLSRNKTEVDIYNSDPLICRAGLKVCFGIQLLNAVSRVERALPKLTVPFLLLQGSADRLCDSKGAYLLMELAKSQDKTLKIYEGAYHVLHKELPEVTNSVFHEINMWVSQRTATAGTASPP
Description: Measurement of MAGL inhibitory activity (arachidonic acid production from 2-arachidonylglycerol, RapidFire-mass spectrometry). It is filed as biochemical. The settings on record: test compound 10 μM; MAGL inhibitory rate. On the procedure:
The His-hMAGL obtained above was diluted with enzyme reaction buffer (10 mM Tris-HCl, pH 7.5, 1 mM EDTA, 0.025 (w/v) % Triton X-100, 0.01% Bovine serum albumin) to a concentration of 7.5 ng/mL. To each well of a 384 well assay plate (Greiner 781280) was added a solution (5 μL) of a test compound dissolved in dimethyl sulfoxide (DMSO), which was diluted with the above-mentioned enzyme reaction buffer, then His-hMAGL solution (5 μL) diluted to a concentration of 7.5 ng/mL was added, and the mixture was incubated at room temperature for 60 min. Thereafter, to each well was added 5 μL of 150 μM 2-arachidonylglycerol (Tocris Bioscience), and the mixture was incubated at room temperature for 10 min. Then, 10 μL of 2% formic acid (Wako Pure Chemical Industries, Ltd.) was added to stop the reaction. Furthermore, acetonitrile (50 μL) containing 3 μM arachidonic acid-d8 (Cayman Chemical Company) was added and the mixture was stirred.
The amount of arachidonic acid in the obtained enzyme reaction mixture was calculated by measuring by RapidFire-mass spectrometry and correcting by the amount of arachidonic acid-d8. High Throughput online solid phase extraction was performed using RapidFire 300™ system (Agilent Technologies, Inc.). Samples were loaded on SPE C4 cartridge (Agilent Technologies, Inc.) and desalted with 0.2 (v/v) % acetic acid (Wako Pure Chemical Industries, Ltd.) in ultrapure water/acetonitrile (70/30, v/v) at a flow rate of 1.5 mL/min, eluted at a flow rate of 0.5 mL/min with 0.2 (v/v) % acetic acid dissolved in acetonitrile/ultrapure water (90/10, v/v), and injected into the mass spectrometry part. The injection needle was washed with ultrapure water (500 millisecond) and acetonitrile (500 millisecond) to minimize carry-over. The suction time (injection loop 5 μL), load/cleansing time, elution time and re-equilibration time were adjusted to 300, 3000, 4250 and 1000 milliseconds, respectively, and the total cycle time was adjusted to about 10.0 seconds. The RapidFire300 system was controlled by RapidFire UI software version 3.6 (Agilent Technologies, Inc.).
The mass spectrometry of the resultant product was performed using API4000™ triple quadrupole mass spectrometer (AB SCIEX) equipped with an electrospray ion sauce (TurboIon Spray™) in a negative selected reaction monitoring (SRM) mode. The conditions of SRM are shown below. The parameters of the instrument were optimized as follows: capillary temperature 600° C., ion spray voltage −4.5 kV, collision gas 8, curtain gas 15 psi, ion source gas 1 60 psi, ion source gas 2 60 psi. The mass spectrometer was controlled by Analyst™ software version 1.5.1 (AB SCIEX). The peak area integration was analyzed using RapidFire integrator software version 3.6 (Agilent Technologies, Inc.).
MAGL inhibitory rate (%) was calculated according to the following calculation formula. (1-(arachidonic acid production amount of test compound addition group−arachidonic acid production amount of enzyme-free group)+(arachidonic acid production amount of test compound-free group−arachidonic acid production amount of enzyme-free group))×100
As for `O=C1NC2(CO1)CN(C(=O)O[C@H]1C[C@H](COc3ccc(F)c(F)c3F)C1)C2` [Example 21, trans-3-((2,3,4-trifluorophenoxy)methyl)cyclobutyl 6-oxo-7-oxa-2,5-diazaspiro[3.4]octane-2-carboxylate], the inhibition at 10 µM amounted to 100%. As for `O=C1NC2(CO1)CN(C(=O)O[C@H]1CC[C@H](Oc3ccc(C(F)(F)F)cc3F)CC1)C2` [Example 37, trans-4-(2-fluoro-4-(trifluoromethyl)phenoxy)cyclohexyl 6-oxo-7-oxa-2,5-diazaspiro[3.4]octane-2-carboxylate], the figure is 101%. On to `O=C1NC2(CO1)CN(C(=O)OC[C@H]1C[C@H](Oc3ccc(C(F)(F)F)cc3Cl)C1)C2` [Example 27, (trans-3-(2-chloro-4-(trifluoromethyl)phenoxy)cyclobutyl)methyl 6-oxo-7-oxa-2,5-diazaspiro[3.4]octane-2-carboxylate], for which the inhibition at 10 µM amounted to 100%. Next, `Cc1ccc(O[C@H]2C[C@@H](OC(=O)N3CC4(COC(=O)N4)C3)C2)c(F)c1` [Example 56, cis-3-(2-fluoro-4-methylphenoxy)cyclobutyl 6-oxo-7-oxa-2,5-diazaspiro[3.4]octane-2-carboxylate]: 101%; `Cc1ccc(CO[C@H]2C[C@@H](OC(=O)N3CC4(COC(=O)N4)C3)C2)cc1Cl` [Example 3, cis-3-((3-chloro-4-methylbenzyl)oxy)cyclobutyl 6-oxo-7-oxa-2,5-diazaspiro[3.4]octane-2-carboxylate]: 101%; `O=C1NC2(CO1)CN(C(=O)O[C@H]1C[C@@H](OCc3ccc(F)c(F)c3F)C1)C2` [Example 6, cis-3-((2,3,4-trifluorobenzyl)oxy)cyclobutyl 6-oxo-7-oxa-2,5-diazaspiro[3.4]octane-2-carboxylate]: 101%.

As to `Cc1cc(F)ccc1O[C@H]1C[C@@H](OC(=O)N2CC3(COC(=O)N3)C2)C1` [Example 55, cis-3-(4-fluoro-2-methylphenoxy)cyclobutyl 6-oxo-7-oxa-2,5-diazaspiro[3.4]octane-2-carboxylate], the inhibition at 10 µM stood at 100%. In the case of `C[C@]1(OC(=O)N2CC3(COC(=O)N3)C2)C[C@@H](Oc2c(F)cc(F)cc2F)C1` [Example 60, cis-1-methyl-3-(2,4,6-trifluorophenoxy)cyclobutyl 6-oxo-7-oxa-2,5-diazaspiro[3.4]octane-2-carboxylate], the inhibition at 10 µM stood at 98%. As for `Cc1ccc(O[C@H]2C[C@@H](OC(=O)N3CC4(COC(=O)N4)C3)C2)cc1F` [Example 45, cis-3-(3-fluoro-4-methylphenoxy)cyclobutyl 6-oxo-7-oxa-2,5-diazaspiro[3.4]octane-2-carboxylate], the figure is 98%; as for `O=C1NC2(CO1)CN(C(=O)O[C@H]1C[C@@H](Oc3ccccc3Cl)C1)C2` [Example 52, cis-3-(2-chlorophenoxy)cyclobutyl 6-oxo-7-oxa-2,5-diazaspiro[3.4]octane-2-carboxylate], 100%. As for `O=C1NC2(CO1)CN(C(=O)OC[C@H]1C[C@@H](Oc3ccc(C(F)(F)F)cc3F)C1)C2` [Example 24, (cis-3-(2-fluoro-4-(trifluoromethyl)phenoxy)cyclobutyl)methyl 6-oxo-7-oxa-2,5-diazaspiro[3.4]octane-2-carboxylate], the figure is 103%.

With `Cc1cc(O[C@H]2C[C@@H](OC(=O)N3CC4(COC(=O)N4)C3)C2)ccc1F` [Example 50, cis-3-(4-fluoro-3-methylphenoxy)cyclobutyl 6-oxo-7-oxa-2,5-diazaspiro[3.4]octane-2-carboxylate], the inhibition at 10 µM came to 99%. `Cc1cc(F)ccc1OC[C@H]1C[C@@H](OC(=O)N2CC3(COC(=O)N3)C2)C1` [Example 13, cis-3-((4-fluoro-2-methylphenoxy)methyl)cyclobutyl 6-oxo-7-oxa-2,5-diazaspiro[3.4]octane-2-carboxylate]: the inhibition at 10 µM worked out at 102%. Take `O=C1NC2(CO1)CN(C(=O)OC[C@H]1C[C@H](Oc3c(F)cc(F)cc3F)C1)C2` [Example 25, (trans-3-(2,4,6-trifluorophenoxy)cyclobutyl)methyl 6-oxo-7-oxa-2,5-diazaspiro[3.4]octane-2-carboxylate]: the inhibition at 10 µM was 100%. In the case of `O=C1NC2(CO1)CN(C(=O)OC[C@H]1C[C@@H](Oc3c(F)cc(F)cc3F)C1)C2` [Example 23, (cis-3-(2,4,6-trifluorophenoxy)cyclobutyl)methyl 6-oxo-7-oxa-2,5-diazaspiro[3.4]octane-2-carboxylate], the inhibition at 10 µM was 100%. Next, `O=C1NC2(CO1)CN(C(=O)O[C@H]1C[C@@H](COc3ccc(Cl)cc3F)C1)C2` [Example 15, cis-3-((4-chloro-2-fluorophenoxy)methyl)cyclobutyl 6-oxo-7-oxa-2,5-diazaspiro[3.4]octane-2-carboxylate]: 103%; `O=C1NC2(CO1)CN(C(=O)O[C@H]1C[C@@H](Oc3ccc(C(F)(F)F)cc3F)C1)C2` [Example 1, cis-3-(2-fluoro-4-(trifluoromethyl)phenoxy)cyclobutyl 6-oxo-7-oxa-2,5-diazaspiro[3.4]octane-2-carboxylate]: 100%.

For the compound `Cc1cc(CO[C@H]2C[C@@H](OC(=O)N3CC4(COC(=O)N4)C3)C2)ccc1Cl` [Example 4, cis-3-((4-chloro-3-methylbenzyl)oxy)cyclobutyl 6-oxo-7-oxa-2,5-diazaspiro[3.4]octane-2-carboxylate], the inhibition at 10 µM worked out at 100%.

Turning to `O=C1NC2(CO1)CN(C(=O)O[C@H]1C[C@@H](OCc3ccc(C(F)(F)F)c(Cl)c3)C1)C2` [Example 11, cis-3-((3-chloro-4-(trifluoromethyl)benzyl)oxy)cyclobutyl 6-oxo-7-oxa-2,5-diazaspiro[3.4]octane-2-carboxylate], the inhibition at 10 µM came to 100%. Consider `Cc1ccc(OC[C@H]2C[C@@H](OC(=O)N3CC4(COC(=O)N4)C3)C2)c(F)c1` [Example 12, cis-3-((2-fluoro-4-methylphenoxy)methyl)cyclobutyl 6-oxo-7-oxa-2,5-diazaspiro[3.4]octane-2-carboxylate], for which the inhibition at 10 µM is 101%. As for `O=C1NC2(CO1)CN(C(=O)O[C@H]1C[C@@H](COc3cc(F)c(F)cc3F)C1)C2` [Example 17, cis-3-((2,4,5-trifluorophenoxy)methyl)cyclobutyl 6-oxo-7-oxa-2,5-diazaspiro[3.4]octane-2-carboxylate], the figure is 101%; as for `O=C1NC2(CO1)CN(C(=O)OC[C@H]1C[C@@H](Oc3ccc(C(F)(F)F)cc3Cl)C1)C2` [Example 26, (cis-3-(2-chloro-4-(trifluoromethyl)phenoxy)cyclobutyl)methyl 6-oxo-7-oxa-2,5-diazaspiro[3.4]octane-2-carboxylate], 100%. As for `O=C1NC2(CO1)CN(C(=O)O[C@H]1C[C@@H](Oc3cc(F)c(F)cc3F)C1)C2` [Example 57, cis-3-(2,4,5-trifluorophenoxy)cyclobutyl 6-oxo-7-oxa-2,5-diazaspiro[3.4]octane-2-carboxylate], the inhibition at 10 µM stood at 100%. Next, `O=C1NC2(CO1)CN(C(=O)O[C@H]1C[C@@H](OCc3cc(F)c(F)cc3F)C1)C2` [Example 7, cis-3-((2,4,5-trifluorobenzyl)oxy)cyclobutyl 6-oxo-7-oxa-2,5-diazaspiro[3.4]octane-2-carboxylate]: 100%; `O=C1NC2(CO1)CN(C(=O)O[C@H]1C[C@@H](COCc3ccc(C(F)(F)F)cc3F)C1)C2` [Example 36, cis-3-(((2-fluoro-4-(trifluoromethyl)benzyl)oxy)methyl)cyclobutyl 6-oxo-7-oxa-2,5-diazaspiro[3.4]octane-2-carboxylate]: 100%.
